# Experiments:
# [1] = test system: S. pneumoniae (SPN); assay: SENTRY Brazil, NCCLS broth microdilution; assay type: cell-based, Streptococcus pneumoniae
# [2] = test system: beta-haemolytic streptococcal isolates; assay: Disk diffusion; assay type: cell-based, beta-haemolytic streptococci; details: 228 isolates
# [3] = test system: Other Enterobacteriacae; assay: Sensitivity of CAP pathogens with/without antibiotic pretreatment; assay type: cell-based, Enterobacteriaceae
# [4] = test system: viridans group streptococci (VGS); assay: MIC; assay type: cell-based
# [5] = test system: H. influenzae; assay: Disk diffusion; assay type: cell-based, Haemophilus influenzae; details: 237 isolates
# [6] = test system: PRSP; assay: Broth microdilution; assay type: cell-based, Streptococcus pneumoniae
# [7] = test system: biofilms of S. aureus (SA204 and SA195) and S. epidermidis (ATCC35983 and ATCC35984); assay: Antibiotic lock, in vitro biofilm on polyurethane film, viable counts; assay type: cell-based, Staphylococcus species; details: any of the time intervals examined
# [8] = test system: S. pneumoniae; assay: Broth microdilution; assay type: cell-based, Streptococcus pneumoniae
# [9] = test system: S. pyogenes; assay: Broth microdilution; assay type: cell-based, Streptococcus pyogenes; details: 212 isolates
# [10] = test system: Other non-fermenting bacteria; assay: Sensitivity of CAP pathogens with/without antibiotic pretreatment; assay type: cell-based
# [11] = test system: P. aeruginosa; assay: as above; assay type: cell-based, Pseudomonas aeruginosa; details: Abs. 3
# [12] = test system: pathogens in community acquired pneumonia of different severity; assay: Sensitivity of CAP pathogens by Fine severity group; assay type: cell-based
# [13] = test system: Kl. pneumoniae; assay: Sensitivity of CAP pathogens with/without antibiotic pretreatment; assay type: cell-based, Klebsiella pneumoniae
# [14] = test system: Streptococcus pneumoniae; assay: BSAC agar dilution, lower respiratory isolates UK and Ireland; assay type: cell-based
# [15] = test system: E. coli; assay: Sensitivity of CAP pathogens with/without antibiotic pretreatment; assay type: cell-based, Escherichia coli
# [16] = test system: C. difficile; assay: E-test, isolates from a department of surgery; assay type: cell-based, Clostridium difficile; details: Clostridioides difficile, read-out: MIC of high level resistant strains
# [17] = test system: H. influenzae; assay: Sensitivity of CAP pathogens with/without antibiotic pretreatment; assay type: cell-based, Haemophilus influenzae
# [18] = test system: ERSP; assay: Broth microdilution; assay type: cell-based, Streptococcus pneumoniae
# [19] = test system: S. -pneumoniae; assay: Sensitivity of CAP pathogens with/without antibiotic pretreatment; assay type: cell-based, Streptococcus pneumoniae
# [20] = test system: Staph. coaq (−); assay: as above; assay type: cell-based, coagulase-negative Staphylococcus
# [21] = test system: Enterococcus sp; assay: as above; assay type: cell-based
# [22] = test system: Moraxella spp.; assay: Disk diffusion; assay type: cell-based; details: 35 isolates
# [23] = test system: Total pathogens in community acquired pneumonia; assay: Sensitivity of CAP pathogens with/without antibiotic pretreatment; assay type: cell-based
# [24] = test system: S. pyogenes; assay: as above; assay type: cell-based, Streptococcus pyogenes; details: Abs. 4
# [25] = test system: S. pneumoniae; assay: MIC of invasive strains, Saint George Hospital 2001–2004; assay type: cell-based, Streptococcus pneumoniae
# [26] = test system: S. aureus; assay: Sensitivity of CAP pathogens with/without antibiotic pretreatment; assay type: cell-based, Staphylococcus aureus
# [27] = test system: S. pneumoniae (Sp); assay: Broth microdilution, point prevalence study Spain; assay type: cell-based, Streptococcus pneumoniae; details: 360 isolates, February 2004; penicillin I+R
# [28] = test system: Other Haemophilus sp.; assay: Sensitivity of CAP pathogens with/without antibiotic pretreatment; assay type: cell-based
# [29] = test system: H. influenzae; assay: Disk diffusion, sputum isolates Athens 2001–2004; assay type: cell-based, Haemophilus influenzae
# [30] = test system: ‘wild type’ Staphylococcus epidermidis skin isolates; assay: NCCLS disk diffusion; assay type: cell-based; details: 52 isolates
# [31] = test system: H.influenzae; assay: Broth microdilution; assay type: cell-based, Haemophilus influenzae; details: Haemophilus influenzae
# [32] = NCCLS breakpoints (Amox/Clav 2/1 mcg/mL)
structure (smiles),measurement,setting,value
CC[C@H]1OC(=O)[C@H](C)[C@@H](O[C@H]2C[C@@](C)(OC)[C@@H](O)[C@H](C)O2)[C@H](C)[C@@H](O[C@@H]2O[C@H](C)C[C@H](N(C)C)[C@H]2O)[C@](C)(O)C[C@@H](C)C(=O)[C@H](C)[C@@H](O)[C@]1(C)O [erythromycin],% S,[1]; 1998,85%
same,% S,[1]; 1999,88%
same,% S,[1]; 2000,91%
same,% S,[1]; 2001,90%
same,% S,[1]; 2002,94%
same,% S,[1]; 2003,91%
same,Susceptible isolates,[2],98%
same,% of sensitive strains,"[3]; after pretreatment, Abs. 5",0.0%
same,% of sensitive strains,"[3]; without pretreatment, Abs. 2",0.0%
same,MIC50,[4],0.12 µg/mL
same,MIC90,[4],256 µg/mL
same,Susceptible isolates,[5],94%
same,%Sus,[6]; [32],21.5%
same,MIC90,"[6]; Streptococcus pneumoniae, PRSP",> 32 µg/mL
same,significant biofilm killing,[7],not achieved
same,%Sus,[8]; [32],71.2%
same,MIC90,[8]; Streptococcus pneumoniae,> 32 µg/mL
same,nonsusceptible,[9],10.8%
same,% of sensitive strains,"[10]; after pretreatment, Abs. 0",0.0%
same,% of sensitive strains,"[10]; without pretreatment, Abs. 1",0.0%
same,% of sensitive strains,[11]; after pretreatment,0.0%
same,% of sensitive strains,[11]; without pretreatment,0.0%
same,"sensitivity, total strains",[12]; higher severity group (Fine scores >70),"26,3%"
same,"sensitivity, total strains",[12]; lower severity group (Fine scores <70),17.6%
same,% of sensitive strains,"[13]; after pretreatment, Abs. 5",0.0%
same,% of sensitive strains,"[13]; without pretreatment, Abs. 4",0.0%
same,"resistance (PEN-NS >0.06, TET-R >1, ERY-R >0.5, CIP-R >2 mg/L)","[14]; Ireland 1999–2000, N 66",27.3%
same,resistance (same cut-offs),"[14]; Ireland 2000–2001, N 59",23.7%
same,resistance (same cut-offs),"[14]; Ireland 2001–2002, N 68",25.0%
same,resistance (same cut-offs),"[14]; Ireland 2002–2003, N 89",12.4%
same,resistance (same cut-offs),"[14]; Ireland 2003–2004, N 76",9.2%
same,resistance (same cut-offs),"[14]; UK 1999–2000, N 595",11.8%
same,resistance (same cut-offs),"[14]; UK 2000–2001, N 608",10.0%
same,resistance (same cut-offs),"[14]; UK 2001–2002, N 631",10.8%
same,resistance (same cut-offs),"[14]; UK 2002–2003, N 683",9.7%
same,resistance (same cut-offs),"[14]; UK 2003–2004, N 709",10.6%
same,% of sensitive strains,"[15]; after pretreatment, Abs. 1",0.0%
same,% of sensitive strains,"[15]; without pretreatment, Abs. 5",0.0%
same,MIC,[16],> 256 µg/mL
same,% of sensitive strains,"[17]; after pretreatment, Abs. 10",0.0%
same,% of sensitive strains,"[17]; without pretreatment, Abs. 26",0.0%
same,%Sus,[18]; [32],0.0%
same,MIC90,[18]; Streptococcus pneumoniae,> 32 µg/mL
same,% of sensitive strains,"[19]; after antibiotic pretreatment, Abs. 3",100.0%
same,% of sensitive strains,"[19]; without antibiotic pretreatment, Abs. 13",100.0%
same,% of sensitive strains,"[20]; after pretreatment, Abs. 2",50.0%
same,% of sensitive strains,"[20]; without pretreatment, Abs. 4",75.0%
same,% of sensitive strains,"[21]; after pretreatment, Abs. 0",0.0%
same,% of sensitive strains,"[21]; without pretreatment, Abs. 1",0.0%
same,Susceptible isolates,[22],100%
same,% of sensitive strains,"[23]; after pretreatment, Abs. 48",22.9%
same,% of sensitive strains,"[23]; without pretreatment, Abs. 95",26.3%
same,% of sensitive strains,[24]; after pretreatment,100.0%
same,% of sensitive strains,[24]; without pretreatment,100.0%
same,% S,[25],82%
same,%R,[25],18%
same,% of sensitive strains,"[26]; after pretreatment, Abs. 4",75.0%
same,% of sensitive strains,"[26]; without pretreatment, Abs. 11",45.5%
same,resistance,[27],36%
same,% of sensitive strains,"[28]; after pretreatment, Abs. 11",0.0%
same,% of sensitive strains,"[28]; without pretreatment, Abs. 21",00%
same,resistance rate,[29]; 2001–2002,49.5%
same,resistance rate,[29]; 2003–2004,58.0%
same,% resistant,[30],46.2%
same,MIC90,[31],8 µg/mL

# Reference: article PMC7129073 (Clinical Microbiology and Infection, 2015)
